In one experiment the test system is A549. Put plainly: Cytotoxicity / anti-proliferation assay (CCK-8), A549. The experiment is classed as cell-based. Particulars: Homo sapiens, 72 h, CCK-8 kit. The protocol: (§1) Then the cells were exposed to the different inhibitors with various concentrations for 72 h. […] EC50s were calculated using GraphPad Prizm statistical package with sigmoidal variable slope dose response curve fit.
(§2) Cell anti-proliferation assays were performed to determine the toxicity of these inhibitors. […] These compounds were further evaluated against the control cell line HEK293 to test their toxicity with a non-cancerous cell line.
Background: Formazan colour is commonly taken as a measure of viable cells.

Experiment [1] addresses T1, Mouse histone methyltransferase G9a (969-1263) (Mus musculus, UniProt Q9Z148).
T1 construct: The 6His-sumo mG9a (969-1263) protein was purified using the following procedure; 6His-sumo (cleaved yes); made in house; host or cells: Escherichia coli BL21 (DE3)
T1 sequence (Q9Z148 969-1263): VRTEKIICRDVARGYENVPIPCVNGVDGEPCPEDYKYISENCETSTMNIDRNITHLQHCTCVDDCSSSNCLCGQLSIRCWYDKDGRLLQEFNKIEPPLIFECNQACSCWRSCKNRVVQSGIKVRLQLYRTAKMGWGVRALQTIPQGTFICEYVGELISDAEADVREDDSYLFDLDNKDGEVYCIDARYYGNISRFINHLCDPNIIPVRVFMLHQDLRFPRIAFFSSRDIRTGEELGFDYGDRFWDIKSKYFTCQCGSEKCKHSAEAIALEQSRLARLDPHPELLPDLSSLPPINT
As to the kind of experiment: MALDI-TOF methylation study of G9a inhibition. Particulars: inhibitors at 5 μM concentration for 30 min. The experiment is classed as biochemical. The protocol:
Mouse histone methyltransferase G9a (969-1263) cDNA was amplified from the cDNA of BALB/c mouse thymus, and the fragment was sub-cloned into a vector with a 6His-sumo tag. […] The 6His-sumo mG9a (969-1263) protein was purified using the following procedure: harvested cell pellet was re-suspended in 20 mM Tris (pH 8.0), 500 mM NaCl, 0.1% β-mercaptoethanol, and 1 mM PMSF. Cells were lysed by sonicating for 15 seconds with 6 second intervals for a total time of 15 minutes on an ice bath. […] The 6His-sumo tag was cleaved from the column by adding Ubiquitin-like-specific protease 1 (ULP-1) at 4° C. for 12 hours. Wash buffer was then run through the Ni^+ column again and the elution buffer collected. Subsequently, advanced protein purification was done by HiTrap Q HP sequential Superdex 200 10/300 GL. Elute of every step was analyzed by SDS PAGE, stained by Coomassie brilliant blue (CBB). […] The reaction was incubated at room temperature for 30 min, and stopped by TFA. 1 μL of the sample was mixed with CHCA matrix and m/z peaks were obtained at reflection positive mode. The results of mass spectrum were analyzed using the Bruker flex analysis software and data processing was carried out as described below. MALDI-TOF based experiments were performed according to the protocol developed by Chang et al. (Nat. Struct. Mol. Biol. 2009, 16, 312-317). MALDI spectra were collected using Bruker flex control software and analyzed by flex analysis. After labelling each cluster peaks of H3K9Me0, H3K9Me1 and H3K9Me2 for all of the tested concentrations, area under the cluster (AUC) were extracted by using the same flex analysis software. % abundance of each peak was calculated by following formula: A=% Abundance of (H3K9Me0)=area of H3K9Me0/(area of H3K9Me0+area of H3K9Me1+area of H3K9Me2) B=% Abundance of (H3K9Me1)=area of H3K9Me1/(area of H3K9Me0+area of H3K9Me1+area of H3K9Me2) C=% Abundance of (H3K9Me2)=area of H3K9Me2/(area of H3K9Me0+area of H3K9Me1+area of H3K9Me2). This was repeated for each spectra (3 multiples for each samples). […] Finally % inhibition was found by subtracting % MA(i) from 100. […] A biochemical assay using MALDI-TOF was used to visualize the effects of the synthesized compounds on G9a enzymatic activity. […] Struct. Mol. Biol. 2009, 16, 312-317).

The target of a further experiment is T2, G9a (Homo sapiens, UniProt Q96KQ7).
T2 construct: endogenous in cells; host or cells: MDA-MB-231
T2 sequence (Q96KQ7 1-1210): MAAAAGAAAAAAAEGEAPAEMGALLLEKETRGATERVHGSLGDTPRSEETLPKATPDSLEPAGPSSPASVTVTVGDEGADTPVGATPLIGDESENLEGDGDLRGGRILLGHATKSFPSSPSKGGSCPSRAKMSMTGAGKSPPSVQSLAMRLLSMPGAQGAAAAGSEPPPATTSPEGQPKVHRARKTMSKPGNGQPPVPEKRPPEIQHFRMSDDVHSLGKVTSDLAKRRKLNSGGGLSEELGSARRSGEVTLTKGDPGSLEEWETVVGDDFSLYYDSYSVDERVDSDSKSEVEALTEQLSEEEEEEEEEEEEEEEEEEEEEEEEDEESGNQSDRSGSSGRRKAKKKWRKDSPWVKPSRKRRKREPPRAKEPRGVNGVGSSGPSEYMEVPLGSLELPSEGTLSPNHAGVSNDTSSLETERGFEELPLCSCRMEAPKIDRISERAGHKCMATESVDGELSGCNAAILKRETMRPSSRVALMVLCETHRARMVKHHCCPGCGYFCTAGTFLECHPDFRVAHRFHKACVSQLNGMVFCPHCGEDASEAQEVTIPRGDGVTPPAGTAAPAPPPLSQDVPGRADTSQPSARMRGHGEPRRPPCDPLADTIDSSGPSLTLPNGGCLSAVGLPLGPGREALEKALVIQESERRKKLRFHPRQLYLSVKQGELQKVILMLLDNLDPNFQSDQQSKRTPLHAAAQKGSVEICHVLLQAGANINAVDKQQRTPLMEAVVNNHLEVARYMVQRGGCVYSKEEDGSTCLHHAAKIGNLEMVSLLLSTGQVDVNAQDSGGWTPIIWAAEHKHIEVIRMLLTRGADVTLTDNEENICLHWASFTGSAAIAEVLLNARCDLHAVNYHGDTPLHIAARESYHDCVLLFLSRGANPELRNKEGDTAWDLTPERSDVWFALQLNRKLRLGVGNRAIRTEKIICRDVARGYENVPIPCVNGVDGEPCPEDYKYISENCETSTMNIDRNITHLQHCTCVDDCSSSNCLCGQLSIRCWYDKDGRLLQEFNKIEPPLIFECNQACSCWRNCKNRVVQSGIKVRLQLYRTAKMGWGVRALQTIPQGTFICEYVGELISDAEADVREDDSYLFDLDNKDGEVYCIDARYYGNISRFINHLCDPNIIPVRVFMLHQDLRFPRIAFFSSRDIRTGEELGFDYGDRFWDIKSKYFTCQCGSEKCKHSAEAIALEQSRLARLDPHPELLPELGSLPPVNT
As to the kind of experiment: H3K9Me2 cell immunofluorescence in-cell Western (ICW) assay. The experiment is classed as cell-based. Particulars: MDA-MB-231 cell line, 48 h. On the procedure: After the incubation, the media was removed and 100 μl fixation and permeabilization solution (2% formaldehyde in PBS) for fixation was added for 30 min. And then use 200 μl 0.1% Triton X100 in PBS washing solution to wash (allow wash to shake on a plate shaker for 5 minutes). After five washes, cells were blocked for 1 h with 150 μl blocking buffer to each well (1% BSA in PBS) (allow blocking at RT with moderate shaking on a plate shaker). After 1 h, remove the blocking buffer from the blocking step and add primary antibody in blocking buffer to cover the bottom of each well. […] The plates were read on an Odyssey CLX (LiCor) scanner at both 800 nm (H3K9me2 signal) and 700 nm (cell tag 700 stain signal) channels. IC50s were calculated using GraphPad Prizm statistical package with sigmoidal variable slope dose response curve fit.

Experiment [2] concerns HDAC. As to the kind of experiment: Cell based homogenous HDAC assay, A549. Particulars: read-out: IC50-HDAC A549; A549 cells, mean ± SD of triplicate.
Experiment [3] concerns HDAC. As to the kind of experiment: Cell based homogenous HDAC assay, K562. Particulars: read-out: IC50-HDAC K562; K562 cells, mean ± SD of triplicate.
Method: (§3) After 24 h, 9 μl inhibitors with different concentration were added to the HeLa cells and incubation was continued for 3 h under cell culture conditions. After this treatment period, 10 μl of a 2 mM stock solution of the substrate Boc-K(Ac)-AMC was added into the 96 well plates with Hela cells and inhibitors. […] A549 and K562 cell lines used the same method, respectively. IC50s were calculated using GraphPad Prizm statistical package with sigmoidal variable slope dose response curve fit.
(§4) Boc-K(Ac)-AMC was used as a cell-permeable HDAC substrate, as after deacetylation it is cleaved by trypsin to release the florescent 7-amino-4-methylcoumarin (AMC).
The test system of a further experiment is HCT-8. As to the kind of experiment: Cytotoxicity / anti-proliferation assay (CCK-8), HCT-8. In kind it is cell-based. Particulars: Homo sapiens, 72 h, CCK-8 kit. The protocol: as §1, §2
Experiment [4] deals with HDAC. Put plainly: Cell based homogenous HDAC assay, Hela. Particulars: read-out: IC50-HDAC Hela; Hela cells, mean ± SD of triplicate.
Method: as §3, §4

A word on the EC50: it is the midpoint of the concentration-response curve. A higher EC50 goes with lower potency in that assay. Broadly, the inhibition is the share of the control response that was lost under treatment. As a reminder, the IC50 is the concentration at which inhibition is half-maximal.

Consider `COc1cc2nc(NCCNC(=O)CCCCCCC(=O)NO)nc(NC3CCN(C(C)C)CC3)c2cc1OC` [Compound 4a, N1-hydroxy-N8-(2-((4-((1-isopropylpiperidin-4-yl)amino)-6,7-dimethoxyquinazolin-2-yl)amino)ethyl)octanediamide], for which the EC50 with A549 and with HCT-8 was greater than 100 µM in each case. Also, the inhibition at 5 µM in experiment [1] was 11.2 ± 3.68%. The IC50 is 74.2 ± 1.94 µM at G9a, greater than 100 µM in the experiment on HDAC [2], greater than 100 µM with HDAC [3] and greater than 100 µM in the experiment with HDAC [4].

Consider `COc1cc2nc(NCCNC(=O)CCCCCC(=O)NO)nc(NC3CCN(C)CC3)c2cc1OC` [Compound 5, N1-(2-((6,7-dimethoxy-4-((1-methylpiperidin-4-yl)amino)quinazolin-2-yl)amino)ethyl)-N7-hydroxyheptanediamide], for which the 50% effective concentration (EC50) in the experiment with A549 and in the experiment with HCT-8 was greater than 100 µM throughout. For the same compound, in experiment [1], testing at 5 µM gave an inhibition of 65 ± 1.95%. Moreover, the IC50 against G9a, in the experiment on HDAC [2], in the experiment with HDAC [3] and with HDAC [4] was greater than 100 µM throughout.

In the case of `COc1cc2nc(NCCNC(=O)CCCCCC(=O)NO)nc(NC3CCN(C(C)C)CC3)c2cc1OC` [Compound 5a, N1-hydroxy-N7-(2-((4-((1-isopropylpiperidin-4-yl)amino)-6,7-dimethoxyquinazolin-2-yl)amino)ethyl)heptanediamide], the EC50 with A549 and with HCT-8 was greater than 100 µM each time. In experiment [1], this compound gave an inhibition at 5 µM of 47.5 ± 9.32%. For the same compound, the IC50 was 66.6 ± 3.98 µM against G9a, greater than 100 µM with HDAC [2], greater than 100 µM in the experiment with HDAC [3] and greater than 100 µM in the experiment with HDAC [4].

Take `COc1cc2nc(NCCNC(=O)CCCCC(=O)NO)nc(NC3CCN(C)CC3)c2cc1OC` [Compound 6, N1-(2-((6,7-dimethoxy-4-((1-methylpiperidin-4-yl)amino)quinazolin-2-yl)amino)ethyl)-N6-hydroxyadipamide]: the EC50 in the experiment on A549 and in the experiment on HCT-8 was greater than 100 µM in each case. Besides, the inhibition at 5 µM in experiment [1] stood at 26.6 ± 11.3%. The IC50 against G9a, with HDAC [2], in the experiment with HDAC [3] and in the experiment with HDAC [4] was greater than 100 µM each time.

For the compound `COc1cc2nc(NCCNC(=O)CCCCC(=O)NO)nc(NC3CCN(C(C)C)CC3)c2cc1OC` [Compound 6a, N1-hydroxy-N6-(2-((4-((1-isopropylpiperidin-4-yl)amino)-6,7-dimethoxyquinazolin-2-yl)amino)ethyl)adipamide], the EC50 in the experiment on A549 and in the experiment on HCT-8 was greater than 100 µM throughout. For the same compound, in experiment [1], the inhibition at 5 µM was 50.6 ± 16.5%. In addition, the IC50 at G9a, in the experiment with HDAC [2], with HDAC [3] and in the experiment with HDAC [4] was greater than 100 µM throughout.

As to `COc1cc2nc(NCCNC(=O)CCCC(=O)NO)nc(NC3CCN(C)CC3)c2cc1OC` [Compound 7, N1-(2-((6,7-dimethoxy-4-((1-methylpiperidin-4-yl)amino)quinazolin-2-yl)amino)ethyl)-N5-hydroxyglutaramide], the EC50 with A549 and in the experiment on HCT-8 was greater than 100 µM in each case. The inhibition at 5 µM in experiment [1] amounted to 19.6 ± 20.9%. The IC50 against G9a was 76.7 ± 0.89 µM; in the experiment with HDAC [2], greater than 100 µM; with HDAC [3], greater than 100 µM; with HDAC [4] it was greater than 100 µM.

As to `COc1cc2nc(NCCNC(=O)CCCC(=O)NO)nc(NC3CCN(C(C)C)CC3)c2cc1OC` [Compound 7a, N1-hydroxy-N5-(2-((4-((1-isopropylpiperidin-4-yl)amino)-6,7-dimethoxyquinazolin-2-yl)amino)ethyl)glutaramide], the half-maximal effective concentration (EC50) with A549 and in the experiment with HCT-8 was greater than 100 µM throughout. In experiment [1], the inhibition at 5 µM was found to be 15 ± 15.7%. Also, the IC50 against G9a was 54.6 ± 3.05 µM; in the experiment with HDAC [2] it was greater than 100 µM; in the experiment with HDAC [3], greater than 100 µM; with HDAC [4], greater than 100 µM.

The record behind these values is patent US20190322643A1 (Georgia State University Research Foundation, Inc., priority 2016, published 2019).
